# Experimental data from patent US20260265301A1, “LONG-ACTING K-OPIOID RECEPTOR AGONIST” (CHENGDU AODA BIOTECHNOLOGY CO., LTD, priority 2023, published 2026).
# Where a SMILES comes first, the peptide text is derived from it. Bridges are numbered along the chain shown (N, C = ends). Roman numbers before positions name the chains, in order. [ ]: non-standard residue; d: D form. The star is where a group is joined. X1 = O=C(O)CCCCCCCCCCCCCCCCC(=O)N[C@@H](CCC(=O)NCCOCCOCCOCCOCC(=O)*)C(=O)O; Api = NC1(C(=O)O)CCNCC1
# Molecular target: T1, human κ opioid receptor (OPRK1) (Homo sapiens, UniProt P41145)
# T1 construct: expressed in transfected cells; host or cells: CHO-K1
# Experiment: Agonist activity: inhibition of forskolin-stimulated cAMP release (HTRF) in CHO-K1 cells stably expressing opioid receptors
# Type: cell-based
# Conditions: CHO-K1 cell line stably expressing opioid receptors; forskolin-stimulated cAMP, HTRF
# Text: Gi-coupled human κ opioid receptor (OPRK1), upon stimulation with its specific opioid receptor agonists, can inhibit the intracellular adenylate cyclase pathway, and decrease cAMP levels. Forskolin can stimulate cAMP release in cell lines highly expressing opioid receptors. By stimulating cell lines stably transfected with opioid receptors, the inhibitory effect of a test compound on forskolin-stimulated cAMP release can be measured to determine the activity of the compound. The relative light units (RLU) from the cells after stimulation with different doses were measured via the homogeneous time-resolved fluorescence (HTRF) technique, and the EC50 of the agonist was subsequently calculated. This activity determination method is a currently commonly used method for determining the activities of opioid receptor agonists at home and abroad.
# A CHO-K1 cell line stably expressing opioid receptors was used. Stably transfected cells were stimulated with various concentrations of agonists (under the stimulation of a certain concentration of forskolin). The relative light units from the cells after stimulation with different doses were measured, from which the EC50 value of the agonist was subsequently obtained by calculation.
# T1 sequence (P41145 whole entry): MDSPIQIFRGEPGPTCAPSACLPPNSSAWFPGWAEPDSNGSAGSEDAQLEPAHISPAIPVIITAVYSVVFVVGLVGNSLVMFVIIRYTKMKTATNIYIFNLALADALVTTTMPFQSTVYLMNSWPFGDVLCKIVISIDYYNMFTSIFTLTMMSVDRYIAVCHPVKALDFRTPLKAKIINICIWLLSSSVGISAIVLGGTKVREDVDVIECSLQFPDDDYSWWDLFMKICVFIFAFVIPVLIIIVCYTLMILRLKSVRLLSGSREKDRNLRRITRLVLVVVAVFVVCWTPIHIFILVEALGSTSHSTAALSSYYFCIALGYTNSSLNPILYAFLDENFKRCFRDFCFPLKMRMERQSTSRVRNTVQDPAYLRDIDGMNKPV
row,SMILES,EC50 [nM]
1,"CC(C)C[C@@H](NC(=O)[C@@H](Cc1ccccc1)NC(=O)[C@H](N)Cc1ccccc1)C(=O)N[C@H](CCCCN)C(=O)N1CCC(N)(C(=O)O)CC1 [Difelikefalin, reference compound]",0.653

# Same assay, conditions: relative to Difelikefalin = 100%
row,SMILES,Relative Activity % [%]
1,"CCOc1ccc(C[C@@H](NC(=O)[C@H](N)Cc2ccccc2)C(=O)N[C@H](CC(C)C)C(=O)N[C@H](CCCCN)C(=O)N2CCC(N)(C(=O)N[C@@H](CCCCNC(=O)COCCOCCOCCOCCNC(=O)CC[C@H](NC(=O)CCCCCCCCCCCCCCCCC(=O)O)C(=O)O)C(N)=O)CC2)cc1 [Compound 1, D-Phe-D-Tyr(Et)-D-Leu-D-Lys-4-aminopiperidine-4-carboxamide-Lys(PEG4CH2CO-γGlu-octadecanedioic acid)-NH2]",15.6
2,"CCOc1ccc(C[C@@H](NC(=O)[C@H](N)Cc2ccccc2)C(=O)N[C@H](CC(C)C)C(=O)N[C@H](CCCCN)C(=O)N2CCC(N)(C(=O)NCCOCC(=O)N[C@@H](CCCCNC(=O)COCCOCCOCCOCCNC(=O)CC[C@H](NC(=O)CCCCCCCCCCCCCCCCC(=O)O)C(=O)O)C(N)=O)CC2)cc1 [Compound 2, D-Phe-D-Tyr(Et)-D-Leu-D-Lys-4-aminopiperidine-4-carboxamide-PEG1CH2CO-Lys(PEG4CH2CO-γGlu-octadecanedioic acid)-NH2]",20.7
3,"CCOc1ccc(C[C@@H](NC(=O)[C@H](N)Cc2ccccc2)C(=O)N[C@H](CC(C)C)C(=O)N[C@H](CCCCN)C(=O)N2CCC(N)(C(=O)NCCOCCOCC(=O)N[C@@H](CCCCNC(=O)COCCOCCOCCOCCNC(=O)CC[C@H](NC(=O)CCCCCCCCCCCCCCCCC(=O)O)C(=O)O)C(N)=O)CC2)cc1 [Compound 3, D-Phe-D-Tyr(Et)-D-Leu-D-Lys-4-aminopiperidine-4-carboxamide-AEEA-Lys(PEG4CH2CO-γGlu-octadecanedioic acid)-NH2]",23.8
4,"CCOc1ccc(C[C@@H](NC(=O)[C@H](N)Cc2ccccc2)C(=O)N[C@H](CC(C)C)C(=O)N[C@H](CCCCN)C(=O)N2CCC(N)(C(=O)NCCOCCOCCOCCOCC(=O)N[C@@H](CCCCNC(=O)COCCOCCOCCOCCNC(=O)CC[C@H](NC(=O)CCCCCCCCCCCCCCCCC(=O)O)C(=O)O)C(N)=O)CC2)cc1 [Compound 4, D-Phe-D-Tyr(Et)-D-Leu-D-Lys-4-aminopiperidine-4-carboxamide-PEG4CH2CO-Lys(PEG4CH2CO-γGlu-octadecanedioic acid)-NH2]",17.2
5,"COc1ccc(C[C@@H](NC(=O)[C@H](N)Cc2ccccc2)C(=O)N[C@H](CC(C)C)C(=O)N[C@H](CCCCN)C(=O)N2CCC(N)(C(=O)NCCOCCOCC(=O)N[C@@H](CCCCNC(=O)COCCOCCOCCOCCNC(=O)CC[C@H](NC(=O)CCCCCCCCCCCCCCCCC(=O)O)C(=O)O)C(N)=O)CC2)cc1 [Compound 5, D-Phe-D-Tyr(Me)-D-Leu-D-Lys-4-aminopiperidine-4-carboxamide-AEEA-Lys(PEG4CH2CO-γGlu-octadecanedioic acid)-NH2]",13.6
6,"CC(C)C[C@@H](NC(=O)[C@@H](Cc1ccc(Cl)cc1)NC(=O)[C@H](N)Cc1ccccc1)C(=O)N[C@H](CCCCN)C(=O)N1CCC(N)(C(=O)NCCOCCOCC(=O)N[C@@H](CCCCNC(=O)COCCOCCOCCOCCNC(=O)CC[C@H](NC(=O)CCCCCCCCCCCCCCCCC(=O)O)C(=O)O)C(N)=O)CC1 [Compound 6, D-Phe-D-Phe(4-Cl)-D-Leu-D-Lys-4-aminopiperidine-4-carboxamide-AEEA-Lys(PEG4CH2CO-γGlu-octadecanedioic acid)-NH2]",12.2
7,"CC(C)C[C@@H](NC(=O)[C@@H](Cc1ccc(F)cc1)NC(=O)[C@H](N)Cc1ccccc1)C(=O)N[C@H](CCCCN)C(=O)N1CCC(N)(C(=O)NCCOCCOCC(=O)N[C@@H](CCCCNC(=O)COCCOCCOCCOCCNC(=O)CC[C@H](NC(=O)CCCCCCCCCCCCCCCCC(=O)O)C(=O)O)C(N)=O)CC1 [Compound 7, D-Phe-D-Phe(4-F)-D-Leu-D-Lys-4-aminopiperidine-4-carboxamide-AEEA-Lys(PEG4CH2CO-γGlu-octadecanedioic acid)-NH2]",10.5
8,"CCOc1ccc(C[C@@H](NC(=O)[C@H](N)Cc2ccccc2)C(=O)N[C@H](CC(C)C)C(=O)N[C@H](CCCCN)C(=O)N2CCC(N)(C(=O)NCCOCCOCC(=O)N[C@@H](CCCCNC(=O)COCCOCCOCCNC(=O)CC[C@H](NC(=O)CCCCCCCCCCCCCCCCC(=O)O)C(=O)O)C(N)=O)CC2)cc1 [Compound 8, D-Phe-D-Tyr(Et)-D-Leu-D-Lys-4-aminopiperidine-4-carboxamide-AEEA-Lys(PEG3CH2CO-γGlu-octadecanedioic acid)-NH2]",17.7
9,"CCOc1ccc(C[C@@H](NC(=O)[C@H](N)Cc2ccccc2)C(=O)N[C@H](CC(C)C)C(=O)N[C@H](CCCCN)C(=O)N2CCC(N)(C(=O)NCCOCCOCC(=O)N[C@@H](CCCCNC(=O)COCCOCCOCCOCCOCCNC(=O)CC[C@H](NC(=O)CCCCCCCCCCCCCCCCC(=O)O)C(=O)O)C(N)=O)CC2)cc1 [Compound 9, D-Phe-D-Tyr(Et)-D-Leu-D-Lys-4-aminopiperidine-4-carboxamide-AEEA-Lys(PEG5CH2CO-γGlu-octadecanedioic acid)-NH2]",16.4
10,"CCOc1ccc(C[C@@H](NC(=O)[C@H](N)Cc2ccccc2)C(=O)N[C@H](CC(C)C)C(=O)N[C@H](CCCCN)C(=O)N2CCC(N)(C(=O)NCC(=O)N[C@@H](CCCCNC(=O)COCCOCCOCCOCCNC(=O)CC[C@H](NC(=O)CCCCCCCCCCCCCCCCC(=O)O)C(=O)O)C(N)=O)CC2)cc1 [Compound 10, D-Phe-D-Tyr(Et)-D-Leu-D-Lys-4-aminopiperidine-4-carboxamide-Gly-Lys(PEG4CH2CO-γGlu-octadecanedioic acid)-NH2]",15.1
11,"CCOc1ccc(C[C@@H](NC(=O)[C@H](N)Cc2ccccc2)C(=O)N[C@H](CC(C)C)C(=O)N[C@H](CCCCN)C(=O)N2CCC(N)(C(=O)NCC(=O)NCC(=O)N[C@@H](CCCCNC(=O)COCCOCCOCCOCCNC(=O)CC[C@H](NC(=O)CCCCCCCCCCCCCCCCC(=O)O)C(=O)O)C(N)=O)CC2)cc1 [Compound 11, D-Phe-D-Tyr(Et)-D-Leu-D-Lys-4-aminopiperidine-4-carboxamide-Gly-Gly-Lys(PEG4CH2CO-γGlu-octadecanedioic acid)-NH2] (I: H-[Api]GGK(X1)-NH2 / II: H-[dF][dY](Et)[dL][dK]; amide I:1-II:C; N-terminus assumed)",16.9
12,"CCOc1ccc(C[C@@H](NC(=O)[C@H](N)Cc2ccccc2)C(=O)N[C@H](CC2CC2)C(=O)N[C@H](CCCCN)C(=O)N2CCC(N)(C(=O)NCCOCCOCC(=O)N[C@@H](CCCCNC(=O)COCCOCCOCCOCCNC(=O)CC[C@H](NC(=O)CCCCCCCCCCCCCCCCC(=O)O)C(=O)O)C(N)=O)CC2)cc1 [Compound 12, D-Phe-D-Tyr(Et)-D-Cyclopropylalanine-D-Lys-4-aminopiperidine-4-carboxamide-AEEA-Lys(PEG4CH2CO-γGlu-octadecanedioic acid)-NH2]",15.2

# Test system: not listed separately
# Experiment: Preliminary pharmacokinetic properties after subcutaneous administration
# Type: in vivo
# Conditions: cynomolgus monkey; male Macaca fascicularis, subcutaneous (SC), 0.1 mg/kg, plasma, LC-MS; read-out: t½ (converted)
# Method: The compound with the best activity was selected for determination of its preliminary pharmacokinetic properties. Two male Macaca fascicularis were used as experimental animals. A subcutaneous administration was performed at a dose of 0.1 mg/kg. Venous blood samples were collected before administration (0 h) and at 1 h, 2 h, 3 h, 4 h, 8 h, 12 h, 18 h, 24 h, 48 h, 96 h, 144 h, and 168 h post-administration. Plasma samples were separated by centrifugation. The plasma concentration of the compound in the plasma samples was determined using liquid chromatography-mass spectrometry.
row,SMILES,half-life [h]
1,"CCOc1ccc(C[C@@H](NC(=O)[C@H](N)Cc2ccccc2)C(=O)N[C@H](CC(C)C)C(=O)N[C@H](CCCCN)C(=O)N2CCC(N)(C(=O)NCCOCCOCC(=O)N[C@@H](CCCCNC(=O)COCCOCCOCCOCCNC(=O)CC[C@H](NC(=O)CCCCCCCCCCCCCCCCC(=O)O)C(=O)O)C(N)=O)CC2)cc1 [Compound 3, D-Phe-D-Tyr(Et)-D-Leu-D-Lys-4-aminopiperidine-4-carboxamide-AEEA-Lys(PEG4CH2CO-γGlu-octadecanedioic acid)-NH2]",55.1
